This test relates to L1210 leukemia ip in BDF1 mice, survival T/C. Put plainly: NCI In Vivo Anticancer Drug Screen. Data for tumor model L1210 Leukemia (intraperitoneal) in B6D2F1 (BDF1) mice. The settings on record: endpoint: mean survival time, higher = longer survival. The gist of the method: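 Transplanted-tumor mice were given test agent; controls received vehicle only. Survival readings from the two groups were divided (treated over control).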

[1] abbreviates: dose: 100.0 mg/kg/injection, schedule: Q01DX009 (ip), vehicle: Klucel (hydroxypropylcellulose) (HPC).
[2] abbreviates: dose: 100.0 mg/kg/injection, schedule: Q04DX002 (ip), vehicle: Klucel (hydroxypropylcellulose) (HPC).
Where [3] appears, read: dose: 200.0 mg/kg/injection, schedule: Q01DX009 (ip), vehicle: Klucel (hydroxypropylcellulose) (HPC).
[4] abbreviates: dose: 100.0 mg/kg/injection, schedule: Q01DX001 (ip), vehicle: saline.

Where “and” joins values, the source holds several entries; their conditions need not be identical. Equal entries are not always repeated. Inconclusive results and toxic doses are left out. Peptide text beside a SMILES is read from it. * marks the point of attachment. Cbz = O=C(OCc1ccccc1)*

`CCN(CC)CCCN1c2ccccc2Sc2ccc(Cl)cc21`: the T/C runs as follows: (dose: 1.56 mg/kg/injection, schedule: Q01DX009 (ip), vehicle: saline) 102 % of control; (dose: 3.12 mg/kg/injection, schedule: Q01DX009 (ip), vehicle: saline) 98 % of control; (dose: 6.25 mg/kg/injection, schedule: Q01DX009 (ip), vehicle: saline) 96 % of control; (dose: 12.5 mg/kg/injection, schedule: Q01DX009 (ip), vehicle: saline) 103 % of control; (dose: 12.5 mg/kg/injection, schedule: Q04DX003 (ip), vehicle: saline) 102 % of control; (dose: 25.0 mg/kg/injection, schedule: Q04DX003 (ip), vehicle: saline) 109 % of control.
Take `O=C(Nc1cc(C(F)(F)F)ccc1Cl)OCC(F)(F)F`: the T/C is, setting by setting: under setting [1], 97 % of control and 104 % of control; under setting [2], 108 % of control and 91 % of control; under setting [3], 105 % of control and 112 % of control; (dose: 200.0 mg/kg/injection, schedule: Q04DX002 (ip), vehicle: Klucel (hydroxypropylcellulose) (HPC)) 103 % of control and 104 % of control; (dose: 400.0 mg/kg/injection, schedule: Q01DX009 (ip), vehicle: Klucel (hydroxypropylcellulose) (HPC)) 94 % of control and 108 % of control; (dose: 400.0 mg/kg/injection, schedule: Q04DX002 (ip), vehicle: Klucel (hydroxypropylcellulose) (HPC)) 103 % of control and 107 % of control.
Turning to `C=C1CC2(C)C(=O)CCCC2OC1=O` (stereo unspecified), the T/C (dose: 25.0 mg/kg/injection, schedule: Q01DX001 (ip), vehicle: saline) is 91 % of control; the T/C (dose: 50.0 mg/kg/injection, schedule: Q01DX001 (ip), vehicle: saline) was 100 % of control; the T/C (dose: 100.0 mg/kg/injection, schedule: Q01DX001 (ip), vehicle: saline with Tween-80) was 102 % of control; the T/C under setting [4] was 106 % of control.
As for `NCCCNC/C=C/CNCCCN`, the T/C by setting is: (dose: 75.0 mg/kg/injection, schedule: Q04DX003 (ip), vehicle: saline) 105 % of control; (dose: 150.0 mg/kg/injection, schedule: Q04DX003 (ip), vehicle: saline) 102 % of control; (dose: 300.0 mg/kg/injection, schedule: Q04DX003 (ip), vehicle: saline) 104 % of control.
With `CC(C)C(C=NCC(CCN1CCOCC1)(c1ccc2ccccc2c1)C(C)C)(CCN1CCOCC1)c1ccc2ccccc2c1` (stereo unspecified), the T/C reads like this: (dose: 25.0 mg/kg/injection, schedule: Q04DX002 (ip), vehicle: saline with Tween-80) 92 % of control; (dose: 50.0 mg/kg/injection, schedule: Q04DX002 (ip), vehicle: saline with Tween-80) 98 % of control; (dose: 100.0 mg/kg/injection, schedule: Q04DX002 (ip), vehicle: saline with Tween-80) 92 % of control.
For the compound `CC(=N/NC(N)=S)/C(C)=N/NC(N)=S`, the T/C is, setting by setting: (dose: 15.0 mg/kg/injection, schedule: Q01DX Z (ip), vehicle: carboxymethylcellulose (CMC)) 97 % of control; (dose: 30.0 mg/kg/injection, schedule: Q01DX Z (ip), vehicle: carboxymethylcellulose (CMC)) 97 % of control; (dose: 50.0 mg/kg/injection, schedule: Q01DX001 (ip), vehicle: carboxymethylcellulose (CMC)) 95 % of control; (dose: 60.0 mg/kg/injection, schedule: Q01DX Z (ip), vehicle: carboxymethylcellulose (CMC)) 101 % of control and 91 % of control; (dose: 100.0 mg/kg/injection, schedule: Q01DX001 (ip), vehicle: carboxymethylcellulose (CMC)) 87 % of control; under setting [4], 110 % of control. Further, the T/C is 91 % of control (dose: 100.0 mg/kg/injection, schedule: Q01DX009 (ip), vehicle: saline); 98 % of control (dose: 100.0 mg/kg/injection, schedule: Q04DX003 (ip), vehicle: saline); 95 % of control (dose: 120.0 mg/kg/injection, schedule: Q01DX Z (ip), vehicle: carboxymethylcellulose (CMC)); 87 % of control (dose: 200.0 mg/kg/injection, schedule: Q01DX001 (ip), vehicle: carboxymethylcellulose (CMC)); 106 % of control (dose: 200.0 mg/kg/injection, schedule: Q01DX001 (ip), vehicle: saline); 88 % of control (dose: 200.0 mg/kg/injection, schedule: Q01DX009 (ip), vehicle: saline). For the same compound, the T/C (dose: 200.0 mg/kg/injection, schedule: Q04DX003 (ip), vehicle: saline) is 86 % of control; the T/C (dose: 240.0 mg/kg/injection, schedule: Q01DX Z (ip), vehicle: carboxymethylcellulose (CMC)) was 93 % of control; the T/C (dose: 240.0 mg/kg/injection, schedule: Q01DX Z (oral), vehicle: carboxymethylcellulose (CMC)) is 105 % of control; the T/C (dose: 400.0 mg/kg/injection, schedule: Q01DX001 (ip), vehicle: carboxymethylcellulose (CMC)) is 89 % of control; the T/C (dose: 400.0 mg/kg/injection, schedule: Q01DX001 (ip), vehicle: saline) was 101 % of control; the T/C (dose: 400.0 mg/kg/injection, schedule: Q01DX009 (ip), vehicle: saline) was 93 % of control. The T/C by setting is: (dose: 400.0 mg/kg/injection, schedule: Q04DX003 (ip), vehicle: saline) 91 % of control; (dose: 480.0 mg/kg/injection, schedule: Q01DX Z (ip), vehicle: carboxymethylcellulose (CMC)) 87 % of control; (dose: 480.0 mg/kg/injection, schedule: Q01DX Z (oral), vehicle: carboxymethylcellulose (CMC)) 102 % of control; (dose: 960.0 mg/kg/injection, schedule: Q01DX Z (oral), vehicle: carboxymethylcellulose (CMC)) 102 % of control; (dose: 1920.0 mg/kg/injection, schedule: Q01DX Z (oral), vehicle: carboxymethylcellulose (CMC)) 111 % of control.
Turning to `COc1cccc2c(=O)c(C(=O)O)c[nH]c12`, the T/C (dose: 50.0 mg/kg/injection, schedule: Q01DX009 (ip), vehicle: Klucel (hydroxypropylcellulose) (HPC)) was 101 % of control; the T/C (dose: 50.0 mg/kg/injection, schedule: Q04DX003 (ip), vehicle: Klucel (hydroxypropylcellulose) (HPC)) was 94 % of control; the T/C under setting [1] is 106 % of control; the T/C (dose: 100.0 mg/kg/injection, schedule: Q04DX002 (ip), vehicle: saline) was 96 % of control; the T/C (dose: 100.0 mg/kg/injection, schedule: Q04DX003 (ip), vehicle: Klucel (hydroxypropylcellulose) (HPC)) is 91 % of control; the T/C under setting [3] is 107 % of control. For the same compound, the T/C is 96 % of control (dose: 200.0 mg/kg/injection, schedule: Q04DX002 (ip), vehicle: saline); 94 % of control (dose: 200.0 mg/kg/injection, schedule: Q04DX003 (ip), vehicle: Klucel (hydroxypropylcellulose) (HPC)); 100 % of control (dose: 400.0 mg/kg/injection, schedule: Q04DX002 (ip), vehicle: saline).
Regarding `COc1ccc(-n2c(=O)c(N=Nc3ccc(Br)cc3)c(O)n(-c3ccc(C)cc3)c2=S)cc1`, the T/C is 94 % of control (dose: 50.0 mg/kg/injection, schedule: Q01DX001 (ip), vehicle: Klucel (hydroxypropylcellulose) (HPC)); 92 % of control (dose: 100.0 mg/kg/injection, schedule: Q01DX001 (ip), vehicle: Klucel (hydroxypropylcellulose) (HPC)); 88 % of control (dose: 200.0 mg/kg/injection, schedule: Q01DX001 (ip), vehicle: Klucel (hydroxypropylcellulose) (HPC)).
`CC(NC(=O)OCc1ccccc1)C(=O)NC(CC(N)=O)C(=O)O` (stereo not drawn) (Cbz-Ala-Asn-OH; configuration not given here): the T/C runs as follows: (dose: 25.0 mg/kg/injection, schedule: Q04DX002 (ip), vehicle: Klucel (hydroxypropylcellulose) (HPC)) 95 % of control; (dose: 50.0 mg/kg/injection, schedule: Q04DX002 (ip), vehicle: Klucel (hydroxypropylcellulose) (HPC)) 95 % of control; under setting [2], 95 % of control.
Take `CCCCCCCC/C=C\CCCCCCCC(=O)N1CC[N+](C)(C)CC1`: the T/C (dose: 5.0 mg/kg/injection, schedule: Q01DX001 (ip), vehicle: saline) is 96 % of control; the T/C (dose: 10.0 mg/kg/injection, schedule: Q01DX001 (ip), vehicle: saline) is 104 % of control; the T/C (dose: 20.0 mg/kg/injection, schedule: Q01DX001 (ip), vehicle: saline) is 93 % of control; the T/C (dose: 40.0 mg/kg/injection, schedule: Q01DX001 (ip), vehicle: saline) is 93 % of control.
For `CC(=O)O[C@H]1CCCC[C@@H]1NC(=O)N(CCCl)N=O`, the T/C by setting is: (dose: 4.4 mg/kg/injection, schedule: Q01DX001 (ip), vehicle: carboxymethylcellulose (CMC)) 118 % of control; (dose: 6.7 mg/kg/injection, schedule: Q01DX001 (ip), vehicle: carboxymethylcellulose (CMC)) 175 % of control; (dose: 10.0 mg/kg/injection, schedule: Q01DX001 (ip), vehicle: carboxymethylcellulose (CMC)) 194 % of control; (dose: 15.0 mg/kg/injection, schedule: Q01DX001 (ip), vehicle: carboxymethylcellulose (CMC)) 313 % of control and 338 % of control; (dose: 27.0 mg/kg/injection, schedule: Q01DX001 (ip), vehicle: carboxymethylcellulose (CMC)) 446 % of control; (dose: 40.0 mg/kg/injection, schedule: Q01DX001 (ip), vehicle: carboxymethylcellulose (CMC)) 404 % of control. In addition, the T/C (dose: 60.0 mg/kg/injection, schedule: Q01DX001 (ip), vehicle: carboxymethylcellulose (CMC)) is 196 % of control.

The record behind these values is PubChem BioAssay AID248 (DTP/NCI, 2004).
